Measurements as given in PMC7839254 (FASEB journal : official publication of the Federation of …, 2021).
Changes are numbered by the printed parent chain.

Columns and labels:
Assay in all cases: isothermal titration calorimetry
Assay type in all cases: binding
[1] = molecular target: T1, human DIPP1 (DIPP1 1-148) (Homo sapiens, UniProt O95989, H42A/R45A)
T1 sequence (O95989 1-148 H42A/R45A): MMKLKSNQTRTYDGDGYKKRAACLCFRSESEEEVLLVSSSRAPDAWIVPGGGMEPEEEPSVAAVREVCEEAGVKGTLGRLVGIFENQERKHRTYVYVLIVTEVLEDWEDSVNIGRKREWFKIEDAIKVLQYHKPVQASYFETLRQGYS

[2] = molecular target: T2, human DIPP1 (DIPP1 1-148) (Homo sapiens, UniProt O95989, R41A)
T2 sequence (O95989 1-148 R41A): T1 sequence (O95989 1-148 H42A/R45A) with R41A, A42H, A45R

[3] = molecular target: T3, human DIPP1 (DIPP1 1-148) (Homo sapiens, UniProt O95989, R45A)
T3 sequence (O95989 1-148 R45A): T1 sequence (O95989 1-148 H42A/R45A) with A42H

[4] = molecular target: T4, human DIPP1 (DIPP1 1-148) (Homo sapiens, UniProt O95989, K18A)
T4 sequence (O95989 1-148 K18A): T1 sequence (O95989 1-148 H42A/R45A) with K18A, A42H, A45R

[5] = molecular target: T5, human DIPP1 (DIPP1 1-148) (Homo sapiens, UniProt O95989)
T5 sequence (O95989 1-148): T1 sequence (O95989 1-148 H42A/R45A) with A42H, A45R

[6] = molecular target: T6, human DIPP1 (DIPP1 1-148) (Homo sapiens, UniProt O95989, H42A)
T6 sequence (O95989 1-148 H42A): T1 sequence (O95989 1-148 H42A/R45A) with A45R

Kd [1] [nM] | Kd [2] [nM] | Kd [3] [nM] | Kd [4] [nM] | Kd [5] [nM] | Kd [6] [nM] | SMILES
1060 ± 90 | 460 ± 50 | 360 ± 50 | 4990 ± 620 | 158 ± 9 | 510 ± 100 | O=P(O)(O)O[C@@H]1[C@@H](OP(=O)(O)O)[C@H](OP(=O)(O)OP(=O)(O)O)[C@@H](OP(=O)(O)O)[C@H](OP(=O)(O)OP(=O)(O)O)[C@@H]1OP(=O)(O)O [1,5-InsP8, 1,5-bis-diphosphoinositol 2,3,4,6-tetrakisphosphate]
– | – | – | – | 251 ± 31 | – | O=P(O)(O)O[C@@H]1[C@@H](OP(=O)(O)OP(=O)(O)O)[C@H](OP(=O)(O)O)[C@@H](OP(=O)(O)O)[C@@H](O)[C@H]1OP(=O)(O)O [5-PP-InsP4, 5-diphosphoinositol 1,3,4,6-tetrakisphosphate]
